Experimental data from patent US8257949B2, “Self-priming polysialyltransferase” (National Research Council of Canada, priority 2006, dated 2012).

Assays:
Format in all cases: biochemical
[1] = target: T1, N. meningitidis polysialyltransferase PST-13 (MalE-PST fusion) (Neisseria meningitidis, UniProt Q51281); experiment: Acceptor inhibition in kinetic assays; conditions: GD3-FCHASE at concentrations over 2 mM
Description: (§1) Measurement of sialyltransferase activity—Basic assays were performed at 37° C. in 10-40 μL volumes containing 50 mM NaHEPES pH 7.5, 10 mM MgCl2, 0.1-50 mM CMP-NeuAc, 0.01-5 mM labelled acceptor and various amounts of enzyme. Buffer optimization assays were done with the following buffers: 20 mM citrate-phosphate pH 6.0-8.0, 50 mM Na2PO4 pH 6.5-7.5, 50 mM NaHEPES pH 6.5-8.0, 50 mM TrisHCl pH 7.5-9.0. Metal optimization assays were performed with 10 mM CaCl2, CoCl2, MgCl2, MnCl2, NiCl2, or ZnSO4. For the magnesium titration, endogenous Mg^2+ was removed by addition of EDTA and then dialyzed against 20 mM TrisHCl pH 7.5. Reactions were stopped man equal volume of 50% acetonitrile, 1% sodium dodecylsulphate, 10 mM EDTA. Analysis of actions was done by capillary electrophoresis as previously described. See, e.g., Wakarchuk, W. W. and Cunningham, A. M., Methods Mol. Biol., 213:263-274 (2003)).
Some degradation of the starting material was observed and was more significant at high acceptor concentrations (5 mM).

[2] = target: E. coli polysialyltransferase PST-05 (MalE-PST fusion) (Escherichia coli, UniProt Q57269); experiment: Sialyltransferase activity by capillary electrophoresis, apparent Km estimation; conditions: CE based assay, 37° C., 50 mM NaHEPES pH 7.5, 10 mM MgCl2, estimated, read-out: apparent Km for GD3-FCHASE
Description: (§2) For production of PST proteins, Cells grown in the presence of IPTG were lysed with an Avestin C5 Emulsiflex cell disrupter (Avestin Ottawa, Ontario) and centrifuged at 1000×g to pellet unbroken cells. MalE-PST fusions were purified using amylose resin as described by the manufacturer (New England Biolabs, Mississauga ON).
as §1
(§3) Acceptor synthesis—The GM3/GD3/GT3-FCHASE acceptors were synthesized from Lac-FCHASE on a milligram scale. […]

[3] = target: T1, N. meningitidis polysialyltransferase PST-13 (MalE-PST fusion); experiment: as above; conditions: CE based assay, 37° C., 50 mM NaHEPES pH 7.5, 10 mM MgCl2, estimated, read-out: apparent Km for GD3-FCHASE
Description: as §2, §1, §3

**Q.** Which “acceptor inhibition (productivity of the enzyme)” value [1] does the source give for “NeuAc-α2,8-NeuAc-α2,3-Gal-β1,4-Glc-β-FCHASE [GD3-FCHASE]” here?
**A.** Its value is “decreased significantly”.

**Q.** And the Km [2]?
**A.** Its Km is 145 µM.

**Q.** And the Km [3]?
**A.** Its Km is 120 µM.
